Laboratory results taken from paper PMC6749389, “Synthesis and In Vitro Anti-Toxoplasma gondii Activity of Novel Thiazolidin-4-one Derivatives” (Molecules, 2019).

Assays:
[1] = Solubility under the protocol conditions; assay type: physicochemical; details: compounds dissolved in DMSO and diluted in medium
Description: Among the 43 compounds tested derivatives 81, 96, 97, 100–104 were insoluble under the protocol conditions and, consequently, they were eliminated from further experiments.
Compounds were dissolved in dimethyl sulfoxide (DMSO, Sigma-Aldrich, St. Louis, MO, USA) to 125 mM. The final concentration of DMSO in the compounds dilutions was not higher than 1.00%. Drug, sulfadiazine [4-amino-N-(2-pyrimidinyl)benzenesulfonamide] (S8626, Sigma-Aldrich) was dissolved in 1M sodium hydroxide (NaOH, Sigma-Aldrich) to 400 mM. Final concertation of NaOH in sulfadiazine dilutions was not higher than 2.5%. Ready solution sulfadiazine and trimethoprim in weight ratio 5:1 (Sul-Tridin 24%, 200 mg/mL [800 mM] + 40 mg/mL [137.78 mM]– ScanVet Poland). Dilution of the all compounds and drugs were freshly prepared before the cells were exposed in appropriate medium.

melting point [°C]	solubility under the protocol conditions [1]	SMILES
234 to 236	insoluble	O=C(O)CC1SC(=NN=Cc2ccccc2O)N(c2ccc(Cl)cc2)C1=O (stereo not drawn) [Compound 81, [3-(4-Chlorophenyl)-2-{[(2-hydroxyphenyl)methylidene]hydrazinylidene}-4-oxo-1,3-thiazolidin-5-yl]acetic acid]
216 to 218	insoluble	CCOc1cc(C=NN=C2SC(=CC(=O)OC)C(=O)N2c2ccccc2Cl)ccc1O [Compound 96, Methyl [3-(2-chlorophenyl)-2-{[(3-ethoxy-4-hydroxyphenyl)methylidene]hydrazinylidene}-4-oxo-1,3-thiazolidin-5-ylidene]acetate]
214 to 216	insoluble	COC(=O)C=C1SC(=NN=Cc2ccccc2O)N(c2ccc(Cl)cc2)C1=O [Compound 97, Methyl [3-(4-chlorophenyl)-2-{[(2-hydroxyphenyl)methylidene]hydrazinylidene}-4-oxo-1,3-thiazolidin-5-ylidene]acetate]
